Results on 25 compounds are retold here after patent US8044052B2, “Biaryl ether urea compounds” (Pfizer Inc., priority 2006, dated 2011).

Counter-ions that a name gives are not always drawn.

The target in the experiment is T1, Human FAAH (Homo sapiens, UniProt O00519).
T1 construct: made in house
T1 sequence (O00519 1-579): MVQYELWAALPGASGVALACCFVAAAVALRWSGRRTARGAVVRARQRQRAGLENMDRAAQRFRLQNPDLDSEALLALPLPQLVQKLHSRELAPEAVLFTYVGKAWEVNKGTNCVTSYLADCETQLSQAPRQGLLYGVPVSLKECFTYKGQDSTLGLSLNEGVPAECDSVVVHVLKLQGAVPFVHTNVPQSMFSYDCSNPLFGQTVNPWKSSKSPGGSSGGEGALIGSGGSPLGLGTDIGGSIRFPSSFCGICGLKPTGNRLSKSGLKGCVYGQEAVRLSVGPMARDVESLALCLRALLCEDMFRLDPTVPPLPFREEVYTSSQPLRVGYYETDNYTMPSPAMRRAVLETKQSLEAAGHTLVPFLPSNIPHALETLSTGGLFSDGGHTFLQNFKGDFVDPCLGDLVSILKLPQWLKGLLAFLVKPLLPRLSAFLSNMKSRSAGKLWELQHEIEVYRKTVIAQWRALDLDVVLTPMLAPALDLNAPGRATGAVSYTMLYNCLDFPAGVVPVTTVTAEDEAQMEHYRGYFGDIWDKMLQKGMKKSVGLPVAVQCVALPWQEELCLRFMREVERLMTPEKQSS
Description: FAAH assay (glutamate dehydrogenase-coupled, oleamide substrate, absorbance at 340 nm). Format: biochemical. Conditions: irreversible inhibition, 1-4 nM FAAH, pH 7.4, 30° C., 90 min; for kinact/KI: read-out: hFAAH kinact/Ki. Here is the method: The FAAH assay was carried out in 384-well clear polystyrene plates in a total volume of 50 μl per well. All percents are by volume. To each well, was placed the reaction mixture (40 μl) containing 1-4 nM FAAH, 50 mM NaPi, pH 7.4, 3 mM α-ketoglutarate, 0.15 mM NADH, 7.5 U/ml glutamate dehydrogenase, 2 mM ADP, 1 mM EDTA, and 0.1% Triton X-100 (The concentration shown for each component is the final concentration in the assay). […] This was immediately followed by the addition of 5 μl oleamide (500 μM) dissolved in 75% EtOH/25% DMSO and the reaction mixture was mixed for 1.5 min. The final concentrations of DMSO and EtOH in the assay were each 7.5%.
Initial velocity data (V) were obtained from the slopes of the initial progressive curves. They were plotted as a function of substrate concentration and fit to the Michaelis-Menten equation (1) using Prism (GraphPad Software, Inc., San Diego, Calif.) software to obtain Km and Vmax values.
To obtain potencies of irreversible inhibitors, progressive curves consistent with first order inhibition kinetics (two-step irreversible inhibition mechanism) were fit to equation (2) by nonlinear least squares regressions to determine kobs values at each inhibitor concentration, where [P]t is the absorbance at time t, V0 is a constant related to the steady state rate of the uninhibited reaction, and kobs is the first order rate constant for enzyme inactivation. The inhibitor dissociation constant (Ki) and the first order rate
[formula] constant of enzyme inactivation at infinite inhibitor concentration (kinact) were then obtained by fitting the kobs vs. [I] curves to equation (3).

As to “4-(3-(5-methylpyridin-2-yloxy)benzylidene)-N-pyridin-3-yl)piperidine-1-carboxamide [Example 44]”, the “hFAAH kinact/Ki” value was 9480 M⁻¹ s⁻¹. Same read-out and setting: to “4-(3-ethoxy-5-{[5-(trifluoromethyl)pyridin-2-yl]oxy}benzylidene)-N-pyridin-3-ylpiperidine-1-carboxamide trifluoroacetate [Example 74]” belongs 9870 M⁻¹ s⁻¹. For `O=C(Nc1cccnc1)N1CCC(=Cc2cccc(Oc3ccc(C(F)(F)F)cn3)c2)CC1` [Example 1, N-pyridin-3-yl-4-(3-{[5-(trifluoromethyl)pyridin-2-yl]oxy}benzylidene)piperidine-1-carboxamide], the kinact/KI is 13300 M⁻¹ s⁻¹. In the case of `Cc1noc(NC(=O)N2CCC(=Cc3cccc(Oc4ccc(C(F)(F)F)cn4)c3)CC2)c1C` [Example 2, N-(3,4-dimethylisoxazol-5-yl)-4-(3-{[5-(trifluoromethyl)pyridin-2-yl]oxy}benzylidene)piperidine-1-carboxamide], the kinact/KI was 5050 M⁻¹ s⁻¹. In the case of `Cc1ccc(NC(=O)N2CCC(=Cc3cccc(Oc4ccc(C(F)(F)F)cn4)c3)CC2)cn1` [Example 3, N-(6-methylpyridin-3-yl)-4-(3-{[5-(trifluoromethyl)pyridin-2-yl]oxy}benzylidene)piperidine-1-carboxamide], the kinact/KI was 7800 M⁻¹ s⁻¹. With `O=C(Nc1cnccn1)N1CCC(=Cc2cccc(Oc3ccc(C(F)(F)F)cn3)c2)CC1` [Example 4, N-pyrazin-2-yl-4-(3-{[5-(trifluoromethyl)pyridin-2-yl]oxy}benzylidene)piperidine-1-carboxamide], the kinact/KI is 25800 M⁻¹ s⁻¹.

For `O=C(Nc1cccnn1)N1CCC(=Cc2cccc(Oc3ccc(C(F)(F)F)cn3)c2)CC1` [Example 5, N-pyridazin-3-yl-4-(3-{[5-(trifluoromethyl)pyridin-2-yl]oxy}benzylidene)piperidine-1-carboxamide], the kinact/KI stood at 24700 M⁻¹ s⁻¹. Turning to `O=C(Nc1onc2ccccc12)N1CCC(=Cc2cccc(Oc3ccc(C(F)(F)F)cn3)c2)CC1` [Example 6, N-2,1-benzisoxazol-3-yl-4-(3-{[5-(trifluoromethyl)pyridin-2-yl]oxy}benzylidene)piperidine-1-carboxamide], the kinact/KI stood at 2510 M⁻¹ s⁻¹.

`Cc1cncc(NC(=O)N2CCC(=Cc3cccc(Oc4ccc(C(F)(F)F)cn4)c3)CC2)c1` [Example 7, N-(5-methylpyridin-3-yl)-4-(3-{[5-(trifluoromethyl)pyridin-2-yl]oxy}benzylidene)piperidine-1-carboxamide]: the kinact/KI turned out to be 2880 M⁻¹ s⁻¹.

For the compound `COc1ccc(NC(=O)N2CCC(=Cc3cccc(Oc4ccc(C(F)(F)F)cn4)c3)CC2)cn1` [Example 8, N-(6-methoxypyridin-3-yl)-4-(3-{[5-(trifluoromethyl)pyridin-2-yl]oxy}benzylidene)piperidine-1-carboxamide], the kinact/KI was 10100 M⁻¹ s⁻¹. For `O=C(Nc1ccccn1)N1CCC(=Cc2cccc(Oc3ccc(C(F)(F)F)cn3)c2)CC1` [Example 9], the “hFAAH kinact/Ki” value came out at 3660 M⁻¹ s⁻¹. Take `O=C(Nc1ccccc1)N1CCC(=Cc2cccc(Oc3ccc(C(F)(F)F)cn3)c2)CC1` [Example 10, N-phenyl-4-(3-{[5-(trifluoromethyl)pyridin-2-yl]oxy}benzylidene)piperidine-1-carboxamide]: the kinact/KI is 3070 M⁻¹ s⁻¹. The same measure, in the same setting: under `N#Cc1ccc(NC(=O)N2CCC(=Cc3cccc(Oc4ccc(C(F)(F)F)cn4)c3)CC2)cn1` [Example 11, N-(6-cyanopyridin-3-yl)-4-(3-{[5-(trifluoromethyl)pyridin-2-yl]oxy}benzylidene)piperidine-1-carboxamide hydrochloride] stands 4040 M⁻¹ s⁻¹; under `COc1cnc(NC(=O)N2CCC(=Cc3cccc(Oc4ccc(C(F)(F)F)cn4)c3)CC2)cn1` [Example 12, N-(5-methoxypyrazin-2-yl)-4-(3-{[5-(trifluoromethyl)pyridin-2-yl]oxy}benzylidene)piperidine-1-carboxamide], 10800 M⁻¹ s⁻¹. In the case of `O=C(Nc1ccc2cc[nH]c2n1)N1CCC(=Cc2cccc(Oc3ccc(C(F)(F)F)cn3)c2)CC1` [Example 13, N-1H-pyrrolo[2,3-b]pyridin-6-yl-4-(3-{[5-(trifluoromethyl)pyridin-2-yl]oxy}benzylidene) piperidine-1-carboxamide], the “hFAAH kinact/Ki” value stood at 3870 M⁻¹ s⁻¹. In the case of `O=C(Nc1ccc2nn[nH]c2c1)N1CCC(=Cc2cccc(Oc3ccc(C(F)(F)F)cn3)c2)CC1` [Example 14, N-1H-1,2,3-benzotriazol-6-yl-4-(3-{[5-(trifluoromethyl)pyridin-2-yl]oxy}benzylidene)piperidine-1-carboxamide], the kinact/KI stood at 3190 M⁻¹ s⁻¹. On the same count and under the same terms, under `O=C(NC(=O)N1CCC(=Cc2cccc(Oc3ccc(C(F)(F)F)cn3)c2)CC1)c1ccccn1` [Example 15, N-{[4-(3-{[5-(trifluoromethyl)pyridin-2-yl]oxy}benzylidene)piperidin-1-yl]carbonyl}pyridine-2-carboxamide] stands 12900 M⁻¹ s⁻¹; under `Cc1cccc(C(=O)NC(=O)N2CCC(=Cc3cccc(Oc4ccc(C(F)(F)F)cn4)c3)CC2)n1` [Example 16, 6-methyl-N-{[4-(3-{[5-(trifluoromethyl)pyridin-2-yl]oxy}benzylidene)piperidin-1-yl]carbonyl}pyridine-2-carboxamide], 2150 M⁻¹ s⁻¹; under `O=C(Nc1cccnc1)N1CCC(=Cc2cccc(OCc3ccccc3)c2)CC1` [Example 17, 4-[3-(benzyloxy)benzylidene]-N-pyridin-3-ylpiperidine-1-carboxamide], 1620 M⁻¹ s⁻¹. As for `O=C(Nc1onc2ccccc12)N1CCC(=Cc2cccc(Oc3ccc(F)cc3)c2)CC1` [Example 18, N-2,1-benzisoxazol-3-yl-4-[3-(4-fluorophenoxy)benzylidene]piperidine-1-carboxamide], the kinact/KI stood at 2730 M⁻¹ s⁻¹. `Cc1noc(NC(=O)N2CCC(=Cc3cccc(Oc4ccc(F)cc4)c3)CC2)c1C` [Example 19, N-(3,4-dimethylisoxazol-5-yl)-4-[3-(4-fluorophenoxy)benzylidene]piperidine-1-carboxamide]: the kinact/KI was found to be 3450 M⁻¹ s⁻¹.

In the case of `O=C(Nc1cccnc1)N1CCC(=Cc2cccc(Oc3ccc(F)cc3)c2)CC1` [Example 20, 4-[3-(4-fluorophenoxy)benzylidene]-N-pyridin-3-ylpiperidine-1-carboxamide], the kinact/KI came to 2380 M⁻¹ s⁻¹. Regarding `O=C(Nc1cnc(-c2ccccc2)cn1)N1CCC(=Cc2cccc(Oc3ccc(C(F)(F)F)cn3)c2)CC1` [Example 21, N-(5-phenyl-pyrazin-2-yl)-4-(3-{[5-(trifluoromethyl)pyridin-2-yl]oxy}benzylidene)piperidine-1-carboxamide], the kinact/KI came to 1850 M⁻¹ s⁻¹. Regarding `Cc1cnc(NC(=O)N2CCC(=Cc3cccc(Oc4ccc(C(F)(F)F)cn4)c3)CC2)cn1` [Example 22, N-(5-methyl-pyrazin-2-yll)-4-(3-{[5-(trifluoromethyl)pyridin-2-yl]oxy}benzylidene)piperidine-1-carboxamide], the “hFAAH kinact/Ki” value worked out at 12000 M⁻¹ s⁻¹. For the compound `COc1cncc(NC(=O)N2CCC(=Cc3cccc(Oc4ccc(C(F)(F)F)cn4)c3)CC2)n1` [Example 23, N-(6-methoxypyrazin-2-yl)-4-(3-{[5-(trifluoromethyl)pyridin-2-yl]oxy}benzylidene)piperidine-1-carboxamide], the kinact/KI was found to be 2910 M⁻¹ s⁻¹.
